Laboratory results: the OPERA property sets (Mansouri et al. 2018)

SMILES	logP
O=C1NC(=O)C2(CCCCCC2)C(=O)N1	1.36
O=C1NC(=O)C2(CCCC2)C(=O)N1	0.24
O=C1NC(=O)C(c2ccccc2)(c2ccccc2)C(=O)N1	1.96
CCC1(C)C(=O)NC(=O)NC1=O	0.08
CC1(c2ccccc2)C(=O)NC(=O)NC1=O	0.91
O=C1NC(=O)C2(CCCCCCC2)C(=O)N1	1.79
CC(C)=CCC1(C(C)(C)C)C(=O)NC(=O)NC1=O	2.56
CC1(C)C(=O)NC(=O)NC1=O	-0.44
O=C1NC(=O)C2(CCCCC2)C(=O)N1	0.91
CC(C)=CCC1(C(C)C)C(=O)NC(=O)NC1=O	2.23
O=C1NC(=O)C2(CCCCCCCCCCC2)C(=O)N1	3.51
O=C1NC(=S)NC(=O)C12CCCCC2	1.78
CCC1(CC=C(C)C)C(=O)NC(=O)NC1=O	1.73
O=C1NC(=O)C2(CCCCCCCCCC2)C(=O)N1	3.15
O=C1NC(=O)C2(CCC2)C(=O)N1	-0.27
C=CCC1(C)C(=O)NC(=O)NC1=O	0.36
O=C1NC(=O)C2(CC2)C(=O)N1	-0.53
